Data reported in US7951805B2, “Heterocyclic derivatives and their use as mediators of stearoyl-CoA desaturase” (Xenon Pharmaceuticals Inc., priority 2004, dated 2011).

Structure (SMILES) | melting point
CCCCCNC(=O)c1ccc(N2CCC(Nc3ccc(F)cc3C(F)(F)F)CC2)nn1.Cl | 136 to 139 °C
Cl.O=C(NCCC1CC1)c1ccc(N2CCC(Nc3ccc(F)cc3C(F)(F)F)CC2)nn1 | 134 to 137 °C

More lines, now with the values ahead:

melting point | Structure (SMILES)
158 to 163 °C | Cl.O=C(NCCC1CC1)c1ccc(N2CCC(Nc3ccccc3C(F)(F)F)CC2)nn1
117 to 121 °C | Cl.O=C(NCCCC1CC1)c1ccc(N2CCC(Nc3ccccc3C(F)(F)F)CC2)nn1
143 to 147 °C | Cl.O=C(NCCCC1CC1)c1ccc(N2CCC(Nc3ccc(F)cc3C(F)(F)F)CC2)nn1
51 to 53 °C | O=C(NCCCC1CC1)c1ccc(N2CCC(N3C(=O)C(F)(F)c4ccccc43)CC2)nn1
